Data taken from patent publication US20250179028A1, “ACRYLAMIDE COMPOUNDS” (NRG THERAPEUTICS LTD, priority 2022, published 2025).

Test system: mPTP
Assay: mPTP mitochondria membrane potential flow cytometry assay in stimulated human platelets
Assay type: cell-based
Protocol: The mPTP cell based assay was performed using a mitochondria membrane potential flow cytometry assay in stimulated human platelets. Simulation of platelets results in the rapid influx of Ca^2+ across the platelet membrane. The Ca^2+ is then sequestered by mitochondria until the threshold for mPTP opening is reached, at which point the pore opens and the mitochondrial membrane potential is dissipated. Changes in mitochondria membrane potential due to mPTP opening can be quantified in live platelets using standard mitochondrial membrane potential dyes e.g. 3,3′-dihexyloxacarbocyanine Iodide; DiOC6(3), enabling pharmacological characterisation of mPTP inhibitors.
Fresh human blood (20 ml) was collected from consenting donors into 3.2% sodium citrate. Platelets were isolated by centrifugation at 200 g for 20 min at room temperature, then the platelet rich plasma layer transferred to a fresh tube. Prostaglandin 12 is added to the platelets at a final concentration of 20 ng/ml. After centrifugation at 640 g for 10 min, the platelet rich pellet was resuspended in 4 ml HEPES assay buffer (137 mM NaCl, 2.7 mM KCl, 11.9 mM NaHCO3, 0.42 mM NaH2PO4, 1 mM MgCl2, 5.5 mM glucose, 0.1% bovine serum albumin, 10 mM HEPES adjusted to pH 7.4) and stored on ice.
Test compounds were prepared from 10 mM stocks in DMSO and serially diluted in assay buffer containing 0.4% DMSO and 25 μl transferred into a 96 well plate. Platelets were loaded with the mitochondrial membrane potential dye DiOC6(3) (3,3′-dihexyloxacarbocyanine Iodide; Invitrogen) at 200 nM for 30 min, then 50 μl plated into each well of the 96 well plate containing diluted test compound and incubated for 15 min. Control wells included DMSO (0.1% final concentration) only or 5 μM cyclosporin A. Platelets were then stimulation with the addition of assay buffer (25 μl) containing CaCl2, alpha thrombin and Convulxin to achieve a final concentrations of 2 mM, 0.017 U/ml and 0.167 μg/ml respectively and incubated for 14 min. The reaction was stopped by the addition of 25 μl 15 mM EDTA in assay buffer. The mitochondrial membrane potential across the population of platelets in each well was then quantified by flow cytometry using a Guava easyCyte 5 Benchtop Flow Cytometer with 3000 events per well. The percentage of platelets with a depolarised mitochondrial membrane potential was calculated for each well. A pIC50 for each compound was then calculated using a standard four parameter curve fit model (GraphPad Prism).

mPTP Human Platelets pIC50	SMILES
7.0	Cc1c(F)cccc1NC(=O)/C=C/c1ccc2c(c1)NC(=O)C2 [Example 10, (E)-N-(3-fluoro-2-methylphenyl)-3-(2-oxoindolin-6-yl)acrylamide]
6.9	Cc1c(F)cccc1NC(=O)/C=C/c1ccc2cn[nH]c2c1 [Comparative Example 1, (E)-N-(2-methyl-3-fluorophenyl)-3-(1H-indazol-6-yl)acrylamide, reference compound]
7.2	Cc1c(F)cccc1NC(=O)/C=C/c1ccc2c(c1)[nH]c(=O)n2C [Example 7, (E)-N-(3-fluoro-2-methylphenyl)-3-(1-methyl-2-oxo-2,3-dihydro-1H-benzo[d]imidazol-5-yl)acrylamide]
7.0	Cc1c(F)cccc1NC(=O)/C=C/c1ccc2oc(=O)[nH]c2c1 [Example 6, (E)-N-(3-fluoro-2-methylphenyl)-3-(2-oxo-2,3-dihydrobenzo[d]oxazol-5-yl)acrylamide]
